Laboratory results: the NIST ThermoML archive (doi:10.1016/j.jct.2015.07.020)
± gives the expanded uncertainty stated by the source.

Columns and labels:
[1] = refractive index (Na D-line) (dimensionless); conditions: 101.33 kPa, Liquid, Standard Abbe refractometry
[2] = 101.33 kPa, Liquid, Vibrating tube method

Row | refractive index ([1]; 298.15 K) | mass density ([2]; 298.15 K) | refractive index ([1]; 293.15 K) | mass density ([2]; 293.15 K) | SMILES
1 | 1.493 ± 0.0005 | 862.51 ± 0.3 kg/m3 | – | – | CCc1ccccc1 [ethylbenzene]
2 | – | – | 1.4912 ± 0.0005 | 863.82 ± 0.3 kg/m3 | CC(C)c1ccccc1 [isopropylbenzene]
3 | 1.3324 ± 0.0005 | – | – | – | O [water]
